Columns and labels:
CCRF-CEM = test: Inhibition the growth of CCRF-CEM human leukemic lymphoblasts in culture during 72 hr of continuous drug exposure; assay type: functional, cell-based
Dihydrofolate reductase = molecular target: T1, Dihydrofolate reductase (Homo sapiens, UniProt P00374); test: Inhibitory activity against human recombinant Dihydrofolate reductase
T1 sequence (P00374 whole entry): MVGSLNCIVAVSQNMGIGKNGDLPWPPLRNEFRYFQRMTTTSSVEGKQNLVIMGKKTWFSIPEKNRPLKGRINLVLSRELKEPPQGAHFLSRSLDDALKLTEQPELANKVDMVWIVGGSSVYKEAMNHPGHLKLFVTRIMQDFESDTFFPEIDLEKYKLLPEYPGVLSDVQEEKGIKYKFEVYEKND

| IC50 (CCRF-CEM) | SMILES | Ki (Dihydrofolate reductase) |
| --- | --- | --- |
| 1200 pM | CCC(Cc1cnc2nc(N)nc(N)c2n1)c1ccc(C(=O)NC(CCCNC(=O)c2ccccc2C(=O)O)C(=O)O)cc1 (centres undefined) | 0.62 pM |
| 640 pM | Nc1nc(N)c2cc(CNc3ccc(C(=O)NC(CCCNC(=O)c4ccccc4C(=O)O)C(=O)O)cc3)ccc2n1 (centres undefined) | – |
| 1300 pM | C#CCC(Cc1cnc2nc(N)nc(N)c2n1)c1ccc(C(=O)NC(CCCNC(=O)c2ccccc2C(=O)O)C(=O)O)cc1 (centres undefined) | 0.6 pM |

| SMILES | IC50 (CCRF-CEM) | Ki (Dihydrofolate reductase) |
| --- | --- | --- |
| Nc1cc(N)c2cc(CCc3ccc(C(=O)NC(CCCNC(=O)c4ccccc4C(=O)O)C(=O)O)cc3)ccc2c1 (centres undefined) | 690 pM | 0.21 pM |
| Nc1cc(N)c2nc(CCc3ccc(C(=O)NC(CCCNC(=O)c4ccccc4C(=O)O)C(=O)O)cc3)cnc2c1 (centres undefined) | 530 pM | 0.35 pM |

Reference: ChEMBL document CHEMBL1135920, “Synthesis and in vitro antitumor activity of new deaza analogues of the nonpolyglutamatable antifolate N(alpha)-(4-amino-4-deoxypteroyl)-N(delta)-hemiphthaloyl-L-ornithine (PT523)” (J Med Chem, 2002)
